From ChEMBL document CHEMBL1141581, “Cyclic guanidines as dual 5-HT5A/5-HT7 receptor ligands: structure-activity relationship elucidation” (Bioorg Med Chem Lett, 2008)
pIC50, pKi: −log10 of the molar value.

How the values were obtained:
[1] = molecular target: T1, 5-hydroxytryptamine receptor 5A (Homo sapiens, UniProt P47898); assay: Displacement of [3H]LSD from human recombinant 5HT5A receptor expressed in HEK293-EBNA cells; assay type: cell-based
Homo sapiens [2] = species: Homo sapiens; assay: Selectivity for human recombinant 5HT5A receptor over human 5HT3 receptor
Homo sapiens [3] = species: Homo sapiens; assay: Selectivity for human recombinant 5HT5A receptor over human recombinant 5HT2A receptor
[4] = molecular target: T2, 5-hydroxytryptamine receptor 2C (Homo sapiens, UniProt P28335); assay: Displacement of [3H]mesulergine from human recombinant 5HT2C receptor expressed in HEK293-EBNA cells; assay type: cell-based
T2 sequence (P28335 whole entry): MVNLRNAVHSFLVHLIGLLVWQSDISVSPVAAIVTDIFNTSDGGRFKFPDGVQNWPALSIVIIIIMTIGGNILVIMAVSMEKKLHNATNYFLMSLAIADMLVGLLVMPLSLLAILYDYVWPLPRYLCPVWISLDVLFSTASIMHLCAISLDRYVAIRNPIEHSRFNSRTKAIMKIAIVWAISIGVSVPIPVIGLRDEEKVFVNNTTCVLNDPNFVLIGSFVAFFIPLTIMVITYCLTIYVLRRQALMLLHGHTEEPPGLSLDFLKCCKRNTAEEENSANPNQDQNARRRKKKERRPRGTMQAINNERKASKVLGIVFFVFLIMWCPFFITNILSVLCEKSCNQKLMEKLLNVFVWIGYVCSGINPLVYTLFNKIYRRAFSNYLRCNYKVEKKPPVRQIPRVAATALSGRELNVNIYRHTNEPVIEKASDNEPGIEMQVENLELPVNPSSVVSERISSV

[5] = molecular target: 5-hydroxytryptamine receptor 1D (Homo sapiens, UniProt P28221); assay: Displacement of [3H]LSD from human recombinant 5HT1D receptor expressed in HEK293-EBNA cells; assay type: cell-based
5-hydroxytryptamine receptor 1D, sequence (P28221 whole entry): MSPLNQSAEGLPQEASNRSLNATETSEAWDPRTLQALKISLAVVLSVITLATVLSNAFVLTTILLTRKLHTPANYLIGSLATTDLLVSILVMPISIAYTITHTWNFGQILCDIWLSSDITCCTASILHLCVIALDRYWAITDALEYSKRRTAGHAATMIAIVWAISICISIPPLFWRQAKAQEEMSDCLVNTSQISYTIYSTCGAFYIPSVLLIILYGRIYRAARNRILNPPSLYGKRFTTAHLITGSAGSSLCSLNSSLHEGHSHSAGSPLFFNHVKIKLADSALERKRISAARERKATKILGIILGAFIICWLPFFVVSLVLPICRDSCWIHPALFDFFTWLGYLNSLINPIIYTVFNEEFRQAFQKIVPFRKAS

[6] = molecular target: 5-hydroxytryptamine receptor 7 (Homo sapiens, UniProt P34969); assay: Displacement of [3H]LSD from human recombinant 5HT7 receptor expressed in HEK293-EBNA cells; assay type: cell-based
5-hydroxytryptamine receptor 7, sequence (P34969 whole entry): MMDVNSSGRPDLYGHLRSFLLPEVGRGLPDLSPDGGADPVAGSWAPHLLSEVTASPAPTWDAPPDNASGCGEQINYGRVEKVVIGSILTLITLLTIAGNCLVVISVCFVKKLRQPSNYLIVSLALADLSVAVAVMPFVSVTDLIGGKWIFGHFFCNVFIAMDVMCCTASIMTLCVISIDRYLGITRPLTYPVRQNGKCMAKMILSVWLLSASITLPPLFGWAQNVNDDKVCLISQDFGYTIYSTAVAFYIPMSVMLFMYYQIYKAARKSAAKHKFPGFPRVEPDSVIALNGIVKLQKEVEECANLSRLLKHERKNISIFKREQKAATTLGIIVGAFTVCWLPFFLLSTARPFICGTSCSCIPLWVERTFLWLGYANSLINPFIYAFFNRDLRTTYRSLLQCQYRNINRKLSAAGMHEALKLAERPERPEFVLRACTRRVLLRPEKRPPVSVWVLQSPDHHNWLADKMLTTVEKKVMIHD

Homo sapiens [7] = species: Homo sapiens; assay: Selectivity for human recombinant 5HT5A receptor over human recombinant 5HT6 receptor
[8] = molecular target: T3, 5-hydroxytryptamine receptor 1A (Homo sapiens, UniProt P08908); assay: Displacement of [3H]8-OH-DPAT from human recombinant 5HT1A receptor expressed in HEK293-EBNA cells; assay type: cell-based
T3 sequence (P08908 whole entry): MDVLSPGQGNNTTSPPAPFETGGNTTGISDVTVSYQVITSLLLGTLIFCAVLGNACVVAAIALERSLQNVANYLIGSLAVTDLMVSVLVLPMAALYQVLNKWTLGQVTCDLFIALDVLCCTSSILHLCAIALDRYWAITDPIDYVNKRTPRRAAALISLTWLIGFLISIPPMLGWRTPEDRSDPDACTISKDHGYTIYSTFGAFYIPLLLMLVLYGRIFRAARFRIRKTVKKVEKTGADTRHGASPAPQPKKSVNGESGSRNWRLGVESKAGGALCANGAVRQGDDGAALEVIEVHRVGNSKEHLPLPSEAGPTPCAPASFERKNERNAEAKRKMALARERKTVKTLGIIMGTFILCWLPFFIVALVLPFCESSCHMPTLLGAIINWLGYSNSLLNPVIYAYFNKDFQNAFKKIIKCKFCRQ

[9] = Inhibition of adrenergic alpha-2 receptor
[10] = molecular target: T4, 5-hydroxytryptamine receptor 2B (Homo sapiens, UniProt P41595); conditions: 1 uM
T4 sequence (P41595 whole entry): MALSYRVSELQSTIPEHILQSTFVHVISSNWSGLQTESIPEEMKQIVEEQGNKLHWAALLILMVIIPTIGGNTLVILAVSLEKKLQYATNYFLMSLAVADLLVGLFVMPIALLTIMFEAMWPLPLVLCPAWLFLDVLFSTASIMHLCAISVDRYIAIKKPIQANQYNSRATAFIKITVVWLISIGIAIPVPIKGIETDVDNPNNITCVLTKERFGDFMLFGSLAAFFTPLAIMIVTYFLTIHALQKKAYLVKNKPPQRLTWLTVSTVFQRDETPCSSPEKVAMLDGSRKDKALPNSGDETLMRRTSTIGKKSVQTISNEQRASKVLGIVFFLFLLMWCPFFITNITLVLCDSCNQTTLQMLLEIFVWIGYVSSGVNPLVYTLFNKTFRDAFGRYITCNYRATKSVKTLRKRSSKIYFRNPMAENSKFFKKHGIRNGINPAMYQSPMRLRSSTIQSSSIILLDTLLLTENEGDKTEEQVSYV
Description: Inhibition of 5HT2B receptor at 1 uM

[11] = Protein binding in mouse plasma; assay type: ADME, cell-free; conditions: read-out: PPB (converted)
[12] = Inhibition of adrenergic alpha-1 receptor at 1 uM
[13] = molecular target: T1, 5-hydroxytryptamine receptor 5A; assay: Antagonist activity at human recombinant 5HT5A receptor expressed in HEK293-EBNA cells by [35S]GTP-gamma-S binding assay; assay type: functional, cell-based
[14] = molecular target: T4, 5-hydroxytryptamine receptor 2B; assay: Inhibition of 5HT2B receptor
Histamine H1 receptor = Histamine H1 receptor (Homo sapiens, UniProt P35367); assay: Binding affinity to histamine H1 receptor
Histamine H1 receptor, sequence (P35367 whole entry): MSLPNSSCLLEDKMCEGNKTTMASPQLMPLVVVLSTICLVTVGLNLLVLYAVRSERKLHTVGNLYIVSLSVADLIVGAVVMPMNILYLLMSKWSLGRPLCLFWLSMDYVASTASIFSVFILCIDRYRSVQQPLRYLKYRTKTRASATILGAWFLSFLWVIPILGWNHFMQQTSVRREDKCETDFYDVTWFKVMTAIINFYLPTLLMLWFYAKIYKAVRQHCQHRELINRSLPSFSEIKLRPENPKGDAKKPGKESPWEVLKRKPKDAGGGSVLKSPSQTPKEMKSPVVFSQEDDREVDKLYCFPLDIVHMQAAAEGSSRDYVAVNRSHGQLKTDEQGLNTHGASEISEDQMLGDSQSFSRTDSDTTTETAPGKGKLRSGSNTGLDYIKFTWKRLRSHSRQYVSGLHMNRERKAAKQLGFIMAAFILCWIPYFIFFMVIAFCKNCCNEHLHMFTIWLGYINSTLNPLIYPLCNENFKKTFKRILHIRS

Homo sapiens [15] = species: Homo sapiens; assay: Selectivity for human recombinant 5HT5A receptor over human recombinant 5HT1D receptor
[16] = molecular target: T5, 5-hydroxytryptamine receptor 3A (Homo sapiens, UniProt P46098); assay: Binding affinity to human 5HT3 receptor
T5 sequence (P46098 whole entry): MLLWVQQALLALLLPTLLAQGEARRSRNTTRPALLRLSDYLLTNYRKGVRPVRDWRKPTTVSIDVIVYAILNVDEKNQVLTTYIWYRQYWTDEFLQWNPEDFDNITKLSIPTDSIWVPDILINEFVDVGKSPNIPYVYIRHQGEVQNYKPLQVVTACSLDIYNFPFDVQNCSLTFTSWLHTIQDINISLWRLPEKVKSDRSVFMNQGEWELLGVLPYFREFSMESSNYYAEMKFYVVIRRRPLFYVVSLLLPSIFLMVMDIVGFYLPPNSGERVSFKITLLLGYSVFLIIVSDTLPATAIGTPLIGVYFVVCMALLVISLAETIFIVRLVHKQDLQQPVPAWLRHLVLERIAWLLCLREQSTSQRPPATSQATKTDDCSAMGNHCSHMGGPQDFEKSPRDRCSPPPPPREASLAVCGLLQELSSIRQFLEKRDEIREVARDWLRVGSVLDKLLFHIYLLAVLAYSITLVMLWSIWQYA

[17] = molecular target: 5-hydroxytryptamine receptor 2A (Homo sapiens, UniProt P28223); assay: Displacement of [3H]ketanserin from human recombinant 5HT2A receptor expressed in HEK293-EBNA cells; assay type: cell-based
5-hydroxytryptamine receptor 2A, sequence (P28223 whole entry): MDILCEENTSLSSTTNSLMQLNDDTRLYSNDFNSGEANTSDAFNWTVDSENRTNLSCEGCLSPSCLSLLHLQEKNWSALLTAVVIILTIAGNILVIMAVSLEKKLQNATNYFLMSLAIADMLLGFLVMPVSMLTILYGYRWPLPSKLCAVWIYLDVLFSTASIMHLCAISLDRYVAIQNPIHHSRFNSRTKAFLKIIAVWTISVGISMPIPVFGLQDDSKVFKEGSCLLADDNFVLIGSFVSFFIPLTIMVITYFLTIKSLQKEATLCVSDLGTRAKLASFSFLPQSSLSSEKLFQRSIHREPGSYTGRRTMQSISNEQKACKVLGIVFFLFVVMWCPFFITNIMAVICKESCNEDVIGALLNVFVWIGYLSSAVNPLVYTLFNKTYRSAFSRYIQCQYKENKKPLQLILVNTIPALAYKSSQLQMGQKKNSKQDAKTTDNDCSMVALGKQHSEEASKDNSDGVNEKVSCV

[18] = molecular target: 5-hydroxytryptamine receptor 6 (Homo sapiens, UniProt P50406); assay: Displacement of [3H]LSD from human recombinant 5HT6 receptor expressed in HEK293-EBNA cells; assay type: cell-based
5-hydroxytryptamine receptor 6, sequence (P50406 whole entry): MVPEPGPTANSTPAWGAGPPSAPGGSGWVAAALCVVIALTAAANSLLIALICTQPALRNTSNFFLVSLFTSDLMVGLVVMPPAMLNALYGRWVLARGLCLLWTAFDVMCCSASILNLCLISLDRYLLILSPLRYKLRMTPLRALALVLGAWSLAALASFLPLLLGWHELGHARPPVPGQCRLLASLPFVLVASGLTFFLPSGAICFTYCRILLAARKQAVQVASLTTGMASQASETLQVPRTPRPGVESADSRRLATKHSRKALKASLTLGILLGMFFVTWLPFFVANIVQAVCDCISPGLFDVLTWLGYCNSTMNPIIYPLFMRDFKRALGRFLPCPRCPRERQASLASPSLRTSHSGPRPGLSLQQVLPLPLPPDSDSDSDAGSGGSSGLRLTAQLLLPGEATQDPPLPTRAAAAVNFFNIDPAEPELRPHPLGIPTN

T1 sequence (P47898 whole entry): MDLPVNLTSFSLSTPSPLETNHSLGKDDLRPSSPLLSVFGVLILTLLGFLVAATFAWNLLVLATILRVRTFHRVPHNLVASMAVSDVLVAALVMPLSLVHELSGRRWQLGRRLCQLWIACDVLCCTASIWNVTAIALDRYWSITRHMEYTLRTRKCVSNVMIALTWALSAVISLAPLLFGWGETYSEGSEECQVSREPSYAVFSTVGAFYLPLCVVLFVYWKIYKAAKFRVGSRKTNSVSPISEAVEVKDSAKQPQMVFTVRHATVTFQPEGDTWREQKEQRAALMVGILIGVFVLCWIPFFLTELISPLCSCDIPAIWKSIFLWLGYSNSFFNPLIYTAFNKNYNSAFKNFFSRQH

| Compound | pKi [1] | pKi [4] | pKi [5] | pKi [6] | pKi [8] | also measured |
| --- | --- | --- | --- | --- | --- | --- |
| NC1=Nc2ccccc2CN1 | 6.18 | – | – | – | – | – |
| NC1=Nc2c(Cl)cccc2CN1 | 6.05 | – | – | – | – | – |
| CNC1=Nc2ccccc2CN1 | 5.75 | – | – | – | – | – |
| Cc1ccc2c(c1)N=C(N)NC2 | 6.56 | – | – | – | – | – |
| NC1=Nc2cc(Cl)ccc2CN1 | 6.46 | – | – | – | – | – |
| NC1=Nc2ccc(F)cc2CN1 | 6.04 | – | – | – | – | – |
| CNC1=Nc2ccc(Cl)c(Cl)c2C(C)N1 (stereo not given) | – | 7.03 | 6.34 | 7.88 | 6.61 | Ratio Ki (Homo sapiens [2]): > 30; Ratio Ki (Homo sapiens [3]): > 30; Ratio Ki (Homo sapiens [7]): > 30 |
| CCC1NC(N)=Nc2cccc(Cl)c21 (stereo not given) | 7.07 | 6.42 | < 5.00 | 7.01 | 5.97 | – |
| CN(C)C1=Nc2ccccc2CN1 | 5.55 | – | – | – | – | – |
| CC1NC(N)=Nc2c(Cl)ccc(Cl)c21 (stereo not given) | 8.19 | 7.13 | 6.02 | 8.62 | 7.04 | Ratio Ki (Homo sapiens [2]): > 30; Ratio Ki (Homo sapiens [3]): > 30; Ratio Ki (Homo sapiens [7]): > 30 |
| CC1NC(N)=Nc2cccc(Cl)c21 (stereo not given) | – | 6.82 | 5.90 | 7.80 | 6.72 | pIC50 [9]: < 6.40; inhibition [10]: > 60%; fraction unbound [11]: 0.16; inhibition [12]: > 60%; Kb [13]: 3.02 nM; pIC50 [14]: < 6.40; pKi (Histamine H1 receptor): 5.96 |
| CNC1=Nc2c(OC(C)C)cccc2C(C)N1 (stereo not given) | – | 6.01 | 6.80 | 8.62 | 6.17 | Ratio Ki (Homo sapiens [15]): 7; Ratio Ki (Homo sapiens [2]): > 30; Ratio Ki (Homo sapiens [3]): > 30; Ratio Ki (Homo sapiens [7]): > 30 |
| COc1cccc2c1N=C(N)NC2C (stereo not given) | – | 6.25 | 6.35 | 8.09 | 7.49 | Ratio Ki (Homo sapiens [2]): > 30; Ratio Ki (Homo sapiens [3]): > 30; Ratio Ki (Homo sapiens [7]): > 30 |
| CC1NC(N)=Nc2ccccc21 (stereo not given) | 7.42 | – | – | – | – | – |
| CC(C)Oc1cccc2c1N=C(N)NC2C (stereo not given) | – | 6.31 | 7.15 | 9.00 | 6.58 | Ratio Ki (Homo sapiens [15]): 7; Ratio Ki (Homo sapiens [2]): > 30; Ratio Ki (Homo sapiens [3]): > 30; Ratio Ki (Homo sapiens [7]): > 30 |
| Cc1cccc2c1CNC(N)=N2 | 6.84 | – | – | – | – | – |
| NC1=Nc2cc(F)ccc2CN1 | 6.19 | – | – | – | – | – |
| NC1=Nc2cccc(F)c2CN1 | 6.26 | – | – | – | – | – |

| Compound | pKi [1] | pKi [4] | pKi [5] | pKi [6] | pKi [8] | also measured |
| --- | --- | --- | --- | --- | --- | --- |
| Cc1ccc2c(c1)CNC(N)=N2 | 6.05 | – | – | – | – | – |
| CC1NC(N)=Nc2ccc(Cl)c(Cl)c21 (stereo not given) | – | 7.59 | 6.59 | 8.06 | 6.74 | Ratio Ki (Homo sapiens [2]): > 30; Ratio Ki (Homo sapiens [3]): > 30; Ratio Ki (Homo sapiens [7]): > 30; pKi (Histamine H1 receptor): 8.10 |
| Cc1cccc2c1N=C(N)NC2 | 6.33 | – | – | – | – | – |
| COc1ccc2c(c1)N=C(N)NC2 | 5.86 | – | – | – | – | – |
| CCC1NC(N)=Nc2ccccc21 (stereo not given) | 7.62 | – | – | – | – | – |
| NC1=Nc2cccc(Cl)c2CN1 [listing 1 of 2 here] | – | – | – | – | – | pKi ([1]; hek293-ebna): 7.00 |
| CCC1NC(N)=Nc2ccc(Cl)c(Cl)c21 (stereo not given) | 7.58 | 6.81 | 5.89 | 7.14 | 6.12 | – |
| COc1cc(Cl)c(C)c2c1N=C(N)NC2C (stereo not given) | – | 7.72 | 6.84 | 8.60 | 6.98 | Ratio Ki (Homo sapiens [2]): > 30; Ratio Ki (Homo sapiens [3]): > 30; Ratio Ki (Homo sapiens [7]): > 30 |
| COc1cccc2c1N=C(N)NC2 | 7.01 | – | – | – | – | – |
| CC1(C)NC(N)=Nc2ccccc21 | 5.93 | – | – | – | – | – |
| NC1=Nc2c(F)cccc2CN1 | 5.70 | – | – | – | – | – |
| COc1c(Cl)ccc2c1C(C)NC(N)=N2 (stereo not given) | 7.64 | 7.13 | 5.94 | 7.91 | 6.47 | – |
| NC1=Nc2cccc(Cl)c2CN1 [listing 2 of 2 here] | 7.00 | 6.18 | 5.44 | 6.10 | 5.77 | pKi [16]: 5.98; pKi [17]: 5.93; pKi [18]: < 5.00 |
| CNC1=Nc2cccc(Cl)c2C(C)N1 (stereo not given) | – | 6.63 | 5.84 | 7.82 | 6.41 | Ratio Ki (Homo sapiens [2]): > 30; Ratio Ki (Homo sapiens [3]): > 30; Kb [13]: 7.41 nM; Ratio Ki (Homo sapiens [7]): > 30 |
| CN1Cc2ccccc2N=C1N | < 5.00 | – | – | – | – | – |
| NC1=Nc2ccc(Cl)cc2CN1 | 6.09 | – | – | – | – | – |
| NC1=Nc2ccc(Cl)c(Cl)c2CN1 | 7.37 | 6.68 | 5.90 | 6.53 | 5.97 | pKi [16]: 6.76; pKi [17]: 6.36; pKi [18]: 5.94 |
| CCCC1NC(N)=Nc2ccccc21 (stereo not given) | 6.09 | – | – | – | – | – |
